Laboratory results published in the supplement of paper PMC4858399.

How the values were obtained:
Settings in all cases: exposure time 48 h
[1] = test system: Caenorhabditis elegans N2; test: AC50 for larval growth inhibition (Hill fit); higher = less potent
Summary of the method: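 Synchronised C. elegans N2 L1 larvae, 50 per well in 96-well plates, were grown at 20°C for 48 h in K-medium with killed OP50, 1% DMSO and 0.5–200 µM chemical. Worm size was read on a COPAS Biosort as extinction, log-transformed and averaged per well, and only wells holding at least 10 worms were kept. AC50 was obtained by a constrained Hill fit using weighted genetic-algorithm regression, with out-of-range values censored.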

[2] = test system: Caenorhabditis elegans N2; test: lowest effective concentration for larval growth inhibition (size below effect threshold); higher = less potent
Summary of the method: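 Worm size was taken as per-worm extinction on the Biosort, log-transformed and turned into well means. The larvae (C. elegans N2, L1 stage, 50 per 96-well) had spent 48 h at 20°C in K-medium with killed bacteria, 1% DMSO and 0.5, 1, 5, 10, 50, 100 or 200 µM chemical. The lowest effective concentration marks the first dose where the plate-adjusted mean size drops under a cutoff and remains under it at every higher dose; the cutoff is 5.665.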

[3] = test system: Caenorhabditis elegans N2; test: mean nematode size ln(EXT) after 48 h, plate-adjusted (DMSO control set to 6) (ln(EXT), control-adjusted); higher = larger nematodes / less growth inhibition
Summary of the method: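 Synchronised C. elegans N2 L1 larvae were grown for 48 h at 20°C in K-medium containing killed OP50, 1% DMSO and 0.5–200 µM chemical, at 50 per well and 4–6 wells per treatment. The Biosort recorded extinction for each worm, and a growth model removed debris. Worm size was obtained by natural-logging these values and averaging them per well. For plate adjustment, the vehicle control mean was subtracted and 6 was added.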

Row | Compound | AC50 for larval growth inhibition [1] [µM] | lowest effective concentration [2] [µM] | mean nematode size ln(EXT) (ln) ([3]; 0.5 µM) | mean nematode size ln(EXT) (ln) ([3]; 1 µM) | mean nematode size ln(EXT) (ln) ([3]; 5 µM) | mean nematode size ln(EXT) (ln) ([3]; 10 µM) | mean nematode size ln(EXT) (ln) ([3]; 50 µM) | mean nematode size ln(EXT) (ln) ([3]; 100 µM) | mean nematode size ln(EXT) (ln) ([3]; 200 µM)
1 | CC(=O)S[C@H](C(=O)N[C@H]1Cc2ccccc2[C@H]2CCC[C@@H](C(=O)O)N2C1=O)C(C)C [Ilepatril] | > 200 | 200 | 5.89 | 5.83 | 5.76 | 5.88 | 5.84 | 5.8 | 5.58
2 | CCCCCCCCCCCO [1-Undecanol] | 18.4 | 50 | 5.77 | 6.01 | 5.84 | 5.7 | 3.79 | 3.74 | 4.93
3 | CC(C)COC(=O)CCCCC(=O)OCC(C)C [Diisobutyl adipate] | 53.6 | 100 | 5.93 | 5.89 | 5.73 | 5.85 | 5.74 | 4.35 | 5.38
4 | CCCCCCOC(=O)c1ccccc1C(=O)OCCCCCC [Dihexyl phthalate] | > 200 | 200 | 5.8 | 5.83 | 5.89 | 5.83 | 5.81 | 5.73 | 5.5
5 | CCCCN(CCCC)SN(C)C(=O)Oc1cccc2c1OC(C)(C)C2 [Carbosulfan] | 60.2 | 1 | 5.76 | 5.51 | 5.04 | 4.86 | 5.15 | 4.44 | 4
6 | ClC(Cl)(Cl)c1ccccc1 [Benzotrichloride] | > 200 | 200 | 5.84 | 5.87 | 5.73 | 5.82 | 5.78 | 5.75 | 4.93
7 | CCC(C)(c1ccc(O)cc1)c1ccc(O)cc1 [Bisphenol B] | 87.1 | 100 | 5.9 | 5.81 | 5.9 | 5.74 | 5.87 | 5.14 | 4.74
8 | CC(C)N(Cc1ccccc1)C(=O)C(C)(C)C [Butam] | > 200 | 200 | 5.94 | 5.88 | 5.91 | 5.86 | 5.88 | 5.86 | 5.61
9 | O=C(N[C@H](c1ccccc1)[C@@H]1CN2CCC1CC2)c1c(Cl)ccc(C(F)(F)F)c1Cl | 171 | 10 | 5.84 | 5.83 | 5.78 | 5.64 | 5.61 | 5.09 | 4.34
